Legend:
human TLR7 = biological target: T1, human TLR7 (Homo sapiens, UniProt Q9NYK1); test: HEK293-Blue-hTLR7 cells assay (NF-κB SEAP reporter); assay type: cell-based; settings: 20 hrs incubation, agonism
T1 construct: host or cells: HEK293-Blue-hTLR7 (HEK293)
T1 sequence (Q9NYK1 27-1049): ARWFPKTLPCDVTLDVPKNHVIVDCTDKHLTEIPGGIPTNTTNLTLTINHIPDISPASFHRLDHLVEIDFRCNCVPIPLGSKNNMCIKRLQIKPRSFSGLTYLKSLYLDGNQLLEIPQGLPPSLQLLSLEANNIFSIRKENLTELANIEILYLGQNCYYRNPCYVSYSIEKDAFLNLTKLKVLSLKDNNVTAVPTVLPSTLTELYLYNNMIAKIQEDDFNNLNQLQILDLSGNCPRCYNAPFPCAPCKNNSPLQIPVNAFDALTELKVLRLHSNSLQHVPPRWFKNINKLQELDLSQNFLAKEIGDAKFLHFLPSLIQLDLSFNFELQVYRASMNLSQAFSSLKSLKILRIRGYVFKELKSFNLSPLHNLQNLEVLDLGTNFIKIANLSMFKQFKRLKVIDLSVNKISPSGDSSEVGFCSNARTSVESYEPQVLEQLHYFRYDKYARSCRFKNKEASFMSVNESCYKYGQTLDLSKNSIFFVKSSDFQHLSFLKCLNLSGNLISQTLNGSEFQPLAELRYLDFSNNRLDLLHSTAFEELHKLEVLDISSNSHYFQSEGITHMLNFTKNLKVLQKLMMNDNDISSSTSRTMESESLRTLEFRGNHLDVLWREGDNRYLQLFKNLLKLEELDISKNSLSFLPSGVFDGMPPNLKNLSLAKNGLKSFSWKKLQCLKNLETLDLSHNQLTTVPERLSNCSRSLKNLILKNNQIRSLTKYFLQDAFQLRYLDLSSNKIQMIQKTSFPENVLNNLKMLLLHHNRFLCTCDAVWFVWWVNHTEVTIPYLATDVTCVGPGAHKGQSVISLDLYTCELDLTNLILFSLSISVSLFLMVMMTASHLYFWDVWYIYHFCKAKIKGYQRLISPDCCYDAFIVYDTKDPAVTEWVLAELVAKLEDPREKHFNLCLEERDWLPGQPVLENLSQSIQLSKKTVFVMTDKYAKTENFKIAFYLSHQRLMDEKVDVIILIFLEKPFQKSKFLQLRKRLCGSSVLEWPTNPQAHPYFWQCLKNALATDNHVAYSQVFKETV
Source text: A stable HEK293-Blue-hTLR7 cell line was purchased from InvivoGen (Cat. #: hkb-htlr7, San Diego, California, USA). These cells were designed for studying the stimulation of human TLR7 by monitoring the activation of NF-κB. A SEAP (secreted embryonic alkaline phosphatase) reporter gene was placed under the control of the IFN-β minimal promoter fused to five NF-κB and AP-1-binding sites. The SEAP was induced by activating NF-κB and AP-1 via stimulating HEK-Blue hTLR7 cells with TLR7 ligands. Therefore the reporter expression was regulated by the NF-κB promoter upon stimulation of human TLR7 for 20 hrs. The cell culture supernatant SEAP reporter activity was determined using QUANTI-Blue™ kit (Cat. #: rep-qbl, Invivogen, San Diego, Ca, USA) at a wavelength of 650 nm, a detection medium that turns purple or blue in the presence of alkaline phosphatase.
HEK293-Blue-hTLR7 cells were incubated at a density of 250,000˜450,000 cells/mL in a volume of 180 μL in a 96-well plate in Dulbecco's Modified Eagle's medium (DMEM) containing 4.5 g/L glucose, 100 U/mL penicillin, 100 μg/mL streptomycin, 100 μg/mL Normocin, 1% (V/V) GlutaMAX™, 10% (V/V) heat-inactivated fetal bovine serum for 24 hrs. Then the HEK293-Blue-hTLR-7 cells were incubated with addition of 20 μL test compound in a serial dilution in the presence of final DMSO at 1% and perform incubation under 37° C. in a CO2 incubator for 20 hrs. Then 20 μL of the supernatant from each well was incubated with 180 μL Quanti-blue substrate solution at 37° C. for 1 hours and the absorbance was read at 620-655 nm using a spectrophotometer. The signalling pathway that TLR7 activation leads to downstream NF-κB activation has been widely accepted, and therefore similar reporter assay was also widely used for evaluating TLR7 agonist (Tsuneyasu Kaisho and Takashi Tanaka, Trends in Immunology, Volume 29, Issue 7, July 2008, […]; Hiroaki Hemmi et al, Nature Immunology 3, 196-200 (2002)).

human TLR8 = biological target: T2, human TLR8 (Homo sapiens, UniProt Q9NR97); test: HEK293-Blue-hTLR8 cells assay (NF-κB SEAP reporter); assay type: cell-based; settings: 20 hours incubation, agonism
T2 construct: host or cells: HEK293-Blue-hTLR8 (HEK293)
T2 sequence (Q9NR97 27-1041): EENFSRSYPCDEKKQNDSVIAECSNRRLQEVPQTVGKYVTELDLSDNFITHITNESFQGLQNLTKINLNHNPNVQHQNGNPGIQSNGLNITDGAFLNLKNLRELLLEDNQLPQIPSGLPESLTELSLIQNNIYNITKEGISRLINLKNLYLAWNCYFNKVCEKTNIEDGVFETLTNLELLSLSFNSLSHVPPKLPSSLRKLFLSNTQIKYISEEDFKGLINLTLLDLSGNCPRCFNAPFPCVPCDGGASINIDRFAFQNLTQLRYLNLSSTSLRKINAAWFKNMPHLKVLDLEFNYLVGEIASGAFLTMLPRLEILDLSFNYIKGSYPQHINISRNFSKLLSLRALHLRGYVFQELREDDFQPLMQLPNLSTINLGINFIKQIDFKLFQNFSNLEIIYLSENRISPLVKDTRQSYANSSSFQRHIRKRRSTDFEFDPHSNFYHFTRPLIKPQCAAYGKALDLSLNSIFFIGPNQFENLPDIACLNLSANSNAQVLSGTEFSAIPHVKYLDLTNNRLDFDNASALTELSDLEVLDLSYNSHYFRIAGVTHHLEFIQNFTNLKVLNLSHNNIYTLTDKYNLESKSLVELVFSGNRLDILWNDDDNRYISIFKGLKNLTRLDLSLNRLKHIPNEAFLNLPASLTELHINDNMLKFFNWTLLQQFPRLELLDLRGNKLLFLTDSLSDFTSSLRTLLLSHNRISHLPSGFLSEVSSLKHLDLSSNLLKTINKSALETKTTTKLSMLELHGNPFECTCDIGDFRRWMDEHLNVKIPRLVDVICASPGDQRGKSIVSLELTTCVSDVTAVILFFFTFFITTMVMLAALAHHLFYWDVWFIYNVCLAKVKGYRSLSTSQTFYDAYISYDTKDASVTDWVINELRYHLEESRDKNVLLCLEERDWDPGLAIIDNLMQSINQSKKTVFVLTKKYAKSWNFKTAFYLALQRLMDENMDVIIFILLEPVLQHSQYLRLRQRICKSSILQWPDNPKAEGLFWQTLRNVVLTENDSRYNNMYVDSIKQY
Source text: A stable HEK293-Blue-hTLR8 cell line was purchased from InvivoGen (Cat. #: hkb-htlr8, San Diego, California, USA). These cells were designed for studying the stimulation of human TLR8 by monitoring the activation of NF-κB. A SEAP (secreted embryonic alkaline phosphatase) reporter gene was placed under the control of the IFN-β minimal promoter fused to five NF-κB and AP-1-binding sites. The SEAP was induced by activating NF-κB and AP-1 via stimulating HEK-Blue hTLR8 cells with TLR8 ligands. Therefore the reporter expression was regulated by the NF-κB promoter upon stimulation of human TLR8. The cell culture supernatant SEAP reporter activity was determined using QUANTI-Blue™ kit (Cat. #: rep-qbl, Invivogen, San Diego, Ca, USA) at a wavelength of 650 nm, a detection medium that turns purple to blue in the presence of alkaline phosphatase.
HEK293-Blue-hTLR8 cells were incubated at a density of 250,000-450,000 cells/mL in a volume of 180 μL in a 96-well plate in Dulbecco's Modified Eagle's medium (DMEM) containing 4.5 g/L glucose, 100 U/mL penicillin, 100 μg/mL streptomycin, 100 μg/mL Normocin, 1% (V/V) GlutaMAX™, 10% (v/v) heat-inactivated fetal bovine serum for 24 hours. Then the HEK293-Blue-hTLR8 cells were incubated with addition of 20 μL test compound in a serial dilution in the presence of final DMSO at 1% and perform incubation under 37° C. in a CO2 incubator for 20 hours. Then 20 μL of the supernatant from each well was incubated with 180 μL Quanti-blue substrate solution at 37° C. for 1 hours and the absorbance was read at 620-655 nm using a spectrophotometer. The signalling pathway that TLR8 activation leads to downstream NF-κB activation has been widely accepted, and therefore similar reporter assay was also widely used for evaluating TLR8 agonist.

| Structure (SMILES) | EC50 (human TLR7) [nM] | EC50 (human TLR8) [nM] |
| --- | --- | --- |
| CCOCc1nc2c(N)nc(C)c(Sc3ccc(CN(C)C)c(C)c3O)c2[nH]1 [Example 16, 6-[[4-amino-2-(ethoxymethyl)-6-methyl-1H-imidazo[4,5-c]pyridin-7-yl]sulfanyl]-3-[(dimethylamino)methyl]-2-methyl-phenol] | 31 | 22 |
| CCOCc1nc2c(N)nc(C)c(Sc3ccc(CN4CCN(C)CC4)c(N)c3)c2[nH]1 [Example 28, 7-[3-amino-4-[(4-methylpiperazin-1-yl)methyl]phenyl]sulfanyl-2-(ethoxymethyl)-6-methyl-1H-imidazo[4,5-c]pyridin-4-amine] | 10 | 44 |
| CCOCc1nc2c(N)nc(C)c(Sc3ccc(CN(C)CC)cc3)c2[nH]1 [Example 6, 2-(ethoxymethyl)-7-[4-[[ethyl(methyl)amino]methyl]phenyl]sulfanyl-6-methyl-1H-imidazo[4,5-c]pyridin-4-amine] | 15 | 10 |
| CCOCc1nc2c(N)nc(C)c(Sc3ccc(CN(C)C)c4cc[nH]c34)c2[nH]1 [Example 18, 7-[[4-[(dimethylamino)methyl]-1H-indol-7-yl]sulfanyl]-2-(ethoxymethyl)-6-methyl-1H-imidazo[4,5-c]pyridin-4-amine] | 9 | 19 |
| CCOCc1nc2c(N)nc(C)c(Sc3ccc(CCN(C)C)cc3)c2[nH]1 [Example 31, 7-[4-[2-(dimethylamino)ethyl]phenyl]sulfanyl-2-(ethoxymethyl)-6-methyl-1H-imidazo[4,5-c]pyridin-4-amine] | 18 | 5 |

The remaining molecules from weak to strong by EC50 (human TLR7), led by results:

| EC50 (human TLR7) [nM] | EC50 (human TLR8) [nM] | Structure (SMILES) |
| --- | --- | --- |
| 28 | 37 | CCOCc1nc2c(N)nc(C)c(Sc3ccc(CN4CCCC4)cc3O)c2[nH]1 [Example 22, 2-[[4-amino-2-(ethoxymethyl)-6-methyl-1H-imidazo[4,5-c]pyridin-7-yl]sulfanyl]-5-(pyrrolidin-1-ylmethyl)phenol] |
| 18 | 30 | CCCN(CC)Cc1ccc(Sc2c(C)nc(N)c3nc(COCC)[nH]c23)cc1 [Example 5, 2-(ethoxymethyl)-7-[4-[[ethyl(propyl)amino]methyl]phenyl]sulfanyl-6-methyl-1H-imidazo[4,5-c]pyridin-4-amine] |
